Results from article PMC6572184, “New γ-Halo-δ-lactones and δ-Hydroxy-γ-lactones with Strong Cytotoxic Activity” (Molecules, 2019).
Read-outs that look alike come from different tables or passages of the source.

Legend:
[1] = tested on: L929 cell lines (mouse fibroblasts); experiment: MTT reduction cytotoxicity assay; type: cell-based; details: 24 h
Description: (§1) Cell cultures: The L929 mouse fibroblasts and human gastric adenocarcinoma cell line AGS were used for in vitro cytotoxicity assays. The cells were maintained under standard conditions (37 ^∘ C, 5% CO 2 ) in 25 cm^2 tissue culture flasks in RPMI-1640 medium supplemented with 10% fetal bovine serum (FBS) and antibiotics: 100 U/mL penicillin and 100 μ g/mL streptomycin. The cell suspension containing 10 ^8 cells in 1 mL, was obtained by treatment of confluent monolayers with 0.25% trypsin solution, washed and subcultured. Cell cultures were supplemented with medium to maintain them in log phase growth. The viability of the cells was assessed by exclusion of trypan blue dye.
(§2) Measurements of cellular metabolic activity and global growth inhibition: L929 cells were seeded into 96-well plates (2 × 10 ^5 cells/well) for 24 h, at 37 ^∘ C, 5% CO2 . Tested compounds 5a–c, 6a–c, 7a–c, 8a–c, 9b,c, 10b,c, 12a and 13a were diluted serially in RPMI-1640 medium in concentrations of 50, 20, 10, 5, 0.5 and 0.1 μ g/mL, added to the cells (100 μ L/well), and incubated under standard conditions for 24 h. The potential harmful effect of lactones on L929 and AGS cells was assessed by the ability of the cells to reduce 3-(4,5-dimethylthiazol-2-yl)-2,5-diphenyltetrazolium bromide (MTT) to formazan. The solution of MTT (5 mg/mL in PBS), was added to each well and the plates were incubated for 4h at 37 ^∘ C. Formazan crystals were dissolved with acidic isopropanol (0.1 M HCl in absolute isopropanol) and the plates were read in a plate reader (Victor 2) at 570 nm. The percentage of MTT reduction was calculated by comparing the absorbance of treated cells to that of untreated control cells. Results are expressed as the mean percentage of viable cells ± standard deviation (SD) of four independent experiments. Statistical significance was accepted at a p-value < 0.05.

[2] = MTT reduction cytotoxicity assay; type: cell-based, mouse; details: mouse, L929 cells (mouse fibroblasts), read-out: mean percentage of viable cells ± SD
Description: as §1, §2

[3] = tested on: AGS cell lines (human gastric adenocarcinoma); experiment: MTT reduction cytotoxicity assay; type: cell-based; details: Homo sapiens
Description: as §1, §2

[4] = MTT reduction cytotoxicity assay; type: cell-based, human; details: human, AGS cells (human gastric adenocarcinoma), 24 h, read-out: mean percentage of viable cells ± SD
Description: as §1, §2

[5] = tested on: Staphylococcus aureus ATCC 65389; experiment: Bactericidal activity, CFU counting method; type: cell-based; details: S. aureus ATCC 65389; for Number of CFU/mL (× 10^7): 18 h at 37 °C, Control 21.36, Control with DMSO 20.85; for less CFU/mL (reduction of the number of CFU/mL): versus control
Description: (§3) The bacterial cultures: Escherichia coli ATCC 8739 and Staphylococcus aureus ATCC 65389 were grown on Luria–Bertani Agar for 18 h at 37 ^∘ C. The strain suspension was prepared in 0.85% saline, with an optical density equivalent to a 0.5 McFarland standard. Next, the following mixtures were prepared: 180 μ L of sterile enriched broth (BTL), 10 μ L of the bacterial suspension and 10 μ L of the tested compound (range 0.1–50 μ g/mL) solubilized in DMSO. As a negative control, only DMSO was added. As a sterility control, 180 μ L of BTL and 20 μ L saline were used. The microtiter plate was incubated at 37 ^∘ C for 18 h. The colony forming unit (CFU) method was used to evaluate the microbial population. The experiment was repeated three times. Gentamicin was used as the reference antibiotic.

[6] = tested on: Escherichia coli ATCC 8739; experiment: Bactericidal activity, CFU counting method; type: cell-based; details: E. coli ATCC 8739; 18 h at 37 °C; Control 9.47, Control with DMSO 9.30
Description: as §3

Row | melting point | SMILES | mean percentage of viable cells ± SD ([1]; 5 μg/mL) | mean percentage of viable cells ± SD ([1]; 10 μg/mL) | viability at 24 h, 0.1 μg/mL [2] | viability at 24 h, 0.5 μg/mL [2] | viability at 24 h, 20 μg/mL [2] | viability at 24 h, 50 μg/mL [2] | IC50 [3] | viability at 24 h, 0.1 μg/mL [4] | viability at 24 h, 0.5 μg/mL [4] | viability at 24 h, 5 μg/mL [4] | viability at 24 h, 10 μg/mL [4] | viability at 24 h, 20 μg/mL [4] | viability at 24 h, 50 μg/mL [4] | Number of CFU/mL (× 10^7) [5] | Number of CFU/mL (× 10^7) [6] | viability at 24 h, 5 μg/mL [2] | viability at 24 h, 10 μg/mL [2] | less CFU/mL (reduction of the number of CFU/mL) [5] | bactericidal activity (in words) [5]
1 | 89 to 91 °C | C[C@@H]1CC(=O)O[C@@H]1C(O)c1ccccc1 (relative stereo) [13b, Cis-dihydro-5-(hydroxy(phenyl)methyl)-4-methylfuran-2(3H)-one] | – | – | – | – | – | – | – | – | – | – | – | – | – | – | – | – | – | – | –
2 | 105 to 106.5 °C | CC1CC(=O)OC(c2ccccc2)C1Cl (stereo not drawn) [5b, Trans,trans-5-chloro-tetrahydro-4-methyl-6-phenylpyran-2-one] | 12 ± 0.05% | 7 ± 0.06% | 20 ± 0.08% | 18 ± 0.15% | 4 ± 0.02% | 1 ± 0.03% | 2300 nM | 35 ± 0.06% | 20 ± 0.09% | 16 ± 0.06% | 14 ± 0.12% | 11 ± 0.07% | 8 ± 0.09% | 7.63 × 10^7 CFU/mL | 4.06 × 10^7 CFU/mL | – | – | – | –
3 | 197 to 198 °C | CC1CC(=O)OC(c2cccc3ccccc23)C1Br (stereo not drawn) [7a, Trans,trans-5-bromo-tetrahydro-4-methyl-6-(naphthalen-1-yl)pyran-2-one] | – | – | 25 ± 0.02% | 18 ± 0.12% | 2 ± 0.03% | 1 ± 0.12% | 2100 nM | 39 ± 0.02% | 26 ± 0.05% | 25 ± 0.1% | 21 ± 0.03% | 20 ± 0.06% | 8 ± 0.03% | 4.63 × 10^7 CFU/mL | 5.21 × 10^7 CFU/mL | 12 ± 0.02% | 6 ± 0.07% | 78–83% | –
4 | 118 to 119 °C | C[C@@H]1CC(=O)O[C@@H]1C(O)c1ccc(F)cc1 (relative stereo) [13c, Cis-5-((4-fluorophenyl)(hydroxy)methyl)-dihydro-4-methylfuran-2(3H)-one] | – | – | – | – | – | – | – | – | – | – | – | – | – | – | – | – | – | – | –
5 | 123 to 124 °C | C[C@@H]1CC(=O)O[C@@H]1[C@@H](O)c1cccc2ccccc12 [13a, Cis-dihydro-5-((S)-hydroxy(naphthalen-1-yl)methyl)-4-methylfuran-2(3H)-one] | – | – | 16 ± 0.09% | 12 ± 0.02% | 5 ± 0.12% | 1 ± 0.07% | 3700 nM | 44 ± 0.12% | 39 ± 0.09% | 29 ± 0.05% | 18 ± 0.12% | 10 ± 0.1% | 8 ± 0.08% | 9.12 × 10^7 CFU/mL | 6.02 × 10^7 CFU/mL | 9 ± 0.03% | 6 ± 0.06% | – | –
6 | 157 to 158 °C | C[C@@H]1CC(=O)O[C@H](c2cccc3ccccc23)[C@H]1Cl (relative stereo) [5a, Trans,trans-5-chloro-tetrahydro-4-methyl-6-(naphthalen-1-yl)pyran-2-one] | – | – | 17 ± 0.09% | 15 ± 0.02% | 5 ± 0.06% | 1 ± 0.01% | 1900 nM | 54 ± 0.07% | 48 ± 0.05% | 43 ± 0.09% | 27 ± 0.1% | 18 ± 0.08% | 15 ± 0.01% | 2.74 × 10^7 CFU/mL | 6.41 × 10^7 CFU/mL | 10 ± 0.03% | 8 ± 0.07% | 87% | –
7 | 86 to 87 °C | C[C@@H]1CC(=O)O[C@H]1C(O)c1ccccc1 (relative stereo) [12b, Trans-dihydro-5-(hydroxy(phenyl)methyl)-4-methylfuran-2(3H)-one] | – | – | – | – | – | – | – | – | – | – | – | – | – | – | – | – | – | – | –
8 | 118 to 119 °C | C[C@@H]1CC(=O)O[C@@H]1C(I)c1ccc(F)cc1 (relative stereo) [11c, Cis-5-((4-fluorophenyl)iodomethyl)-dihydro-4-methylfuran-2(3H)-one] | – | – | – | – | – | – | – | – | – | – | – | – | – | – | – | – | – | – | –
9 | – | C[C@@H]1CC(=O)O[C@H]1[C@@H](O)c1cccc2ccccc12 (mixture of isomers) [12a, Trans-dihydro-5-((S)-hydroxy(naphthalen-1-yl)methyl)-4-methylfuran-2(3H)-one] | – | – | 19 ± 0.15% | 15 ± 0.05% | 3 ± 0.03% | 2 ± 0.06% | 4300 nM | 39 ± 0.09% | 26 ± 0.05% | 22 ± 0.09% | 18 ± 0.05% | 13 ± 0.08% | 9 ± 0.1% | 21.15 × 10^7 CFU/mL | 9.43 × 10^7 CFU/mL | 10 ± 0.02% | 8 ± 0.06% | – | did not show bactericidal activity
10 | 86 to 87 °C | C[C@@H]1CC(=O)O[C@@H]1C(I)c1ccccc1 (relative stereo) [11b, Cis-dihydro-5-(iodo(phenyl)methyl)-4-methylfuran-2(3H)-one] | – | – | – | – | – | – | – | – | – | – | – | – | – | – | – | – | – | – | –
11 | 118 to 119 °C | C[C@@H]1CC(=O)O[C@H]1C(O)c1ccc(F)cc1 (relative stereo) [12c, Trans-5-((4-fluorophenyl)(hydroxy)methyl)-dihydro-4-methylfuran-2(3H)-one] | – | – | – | – | – | – | – | – | – | – | – | – | – | – | – | – | – | – | –
12 | 111 to 112 °C | CC1CC(=O)OC(c2ccccc2)C1Br (stereo not drawn) [7b, Trans,trans-5-bromo-tetrahydro-4-methyl-6-phenylpyran-2-one] | – | – | 25 ± 0.03% | 18 ± 0.08% | 5 ± 0.15% | 2 ± 0.09% | 3600 nM | 40 ± 0.1% | 25 ± 0.1% | 23 ± 0.02% | 20 ± 0.06% | 14 ± 0.03% | 10 ± 0.06% | 10.96 × 10^7 CFU/mL | 8.63 × 10^7 CFU/mL | 13 ± 0.12% | 10 ± 0.05% | – | –
